This passage reports IC50 results from patent US6235891A, “Glucocorticoid receptor agonist and decreased PP5” (South Alabama Medical Science Foundation, priority 1999, dated 2001).

The data set has as its system PP5 mRNA. Nature of the data set: Northern blot analysis of PP5 mRNA expression in A549 cells. It counts as cell-based, human. The following applies: doses of 25 to 500 nM, read-out: IC50 for reduction of PP5 mRNA levels. The source says:
The oligonucleotides shown in Table 1 were designed using the Genbank sequences HSSERTHRP (Genbank accession number X92121), HSRNAPPP5 (Genbank accession number X89416) and PPP5C (Genbank accession number U25174), synthesized and tested for inhibition of PP5 mRNA expression in A549 cells using a Northern blot assay. All oligonucleotides shown in Table 1 are chimeric oligonucleotides with central 2'-deoxy "gaps," which have phosphorothioate backbones, flanked on both sides by 2'-methoxyethoxy (2'-MOE) "wings" (shown in bold), which have phosphodiester backbones. All cytosines in the 2'-MOE wings are 5-methylcytosines.
In the initial screen, A549 cells were treated with oligonucleotides at a concentration of 300 nM oligonucleotide for four hours in the presence of […] lipofectin. Results were normalized and expressed as a percent of control. The effect of each oligonucleotide on levels of PP5 mRNA, expressed as approximate percent inhibition compared to control, is shown in Table 1. In this initial screen, oligonucleotides giving a reduction of PP5 mRNA of approximately 50% or greater were considered active. […] These sequences (SEQ ID NO: 1, 2, 3, 4, 6, 7 and 12, respectively, SEQ ID Nos shown in bold in Table 1) are therefore preferred.
These oligonucleotides were tested for their ability to reduce PP5 mRNA levels in A549 cells, using oligonucleotide doses of 25 to 500 nM.
The human lung tumor cell line A549 was obtained from the American Type Culture Collection (Rockville Md.) and were grown in DMEM (Gibco BRL, Gaithersburg Md.), supplemented with 10% fetal calf. Cells were seeded on 60 mm plates. When they reached 70% confluency, they were washed with DMEM and 1 ml of DMEM containing 15 μg/ml DOTMA/DOPE (Lipofectin®, GIBCO-BRL) and oligonucleotide at desired concentration was added. Duplicate dishes were used for each treatment condition. After 4 hours of treatment at 37°, cells were washed and cultured in fresh DMEM containing 10% fetal bovine serum for an additional 17 hours. Cells were then harvested and total RNA was extracted with TRIzol Reagent (GIBCO-BRL) according to manufacturer's protocol. Total RNA (20 μg) was fractionated on a 1% agarose gel containing formaldehyde, and transferred to a DURLON-UV (Stratagene) nylon membrane. Following UV crosslinking, the filters were hybridized with the appropriate protein phosphatase probe. The ^32 P-labeled human PP cDNA probes are generated with DECAPrime® DNA Labeling Kit (Ambion) according to the manufacturer's protocol. Hybridization was performed in a hybridization solution containing 50% formamide at 42° for 16 hours. This was followed by two low stringency washes (2×SSC) at room temperature and two high stringency washes (0.1×SSC/0.5% SDS) at 55° C. Hybridization signals were visualized by autoradiography, and filters were then stripped and reprobed with a ^32 P-labeled glyceraldehyde-3-phosphate dehydrogenase (GAPDH) probe to confirm equal loading. The densities of hybridization signals were measured with the NIH Image program (ImagePC).
The cells were harvested, and total RNA was extracted with TRIzol® Reagent according to the methods of the manufacturer. Total RNA (20 μg) was fractionated on 1% agarose gels containing formaldehyde and transferred to DURLON-UV nylon membranes (Stratagene). Following UV cross-linking, the filters were hybridized with a [α^32 P]probe for human PP5. The human PP5 cDNA probe was generated from the full length coding region of PP5 and [α^32 P]-dATP was labeled with DECAprime® DNA Labeling Kit according to the manufacturer's protocol. Hybridization was performed in the presence of 50% formamide, 0.1 M Pipes, 0.8 M NaCl, 5×Denhardt's solution, 100 μg/ml denatured herring sperm DNA, 1×10^6 cpm/ml [α-^32 P]-labeled probe and 10% dextran sulfate at 42° C. for 16 hours. Following hybridization, the membrane was subjected to two low stringency washes (2×SSC) at room temperature and then two high stringency washes (0.1×SSC/0.5% SDS) at 55° C. […]

On to “ISIS 15534: chimeric PP5 antisense oligonucleotide, P=O wings, P=S deoxy gap; GGGCCCTATTGCTTGAGTGG, SEQ ID NO: 12 (sugars by position and backbone not given here; chimeric, phosphodiester wings, phosphorothioate deoxy gap)”, for which the half-maximal inhibitory concentration (IC50) (as a rule, the concentration that gives 50% inhibition) is around 135 nM.
